In patent publication US7026281B1, “Antagonistic analogs of GH-RH inhibiting IGF-I and -II” (The Administrators of the Tulane Educational Fund, priority 1998, dated 2006):
Square brackets hold non-standard residues; d marks the D form. Peptide text beside a SMILES is read from it. * marks the point of attachment. Phe(4-Cl) = N[C@@H](Cc1ccc(Cl)cc1)C(=O)O; Nle = CCCC[C@H](N)C(=O)O; Abu = CC[C@H](N)C(=O)O; PhAc = O=C(Cc1ccccc1)*

How the values were obtained:
[1] = tested on: hGH-RH(1–29)NH2 induced GH release; assay: Inhibition of GH release in superfused rat pituitary system; assay type: cell-based; settings: for Inhibition of GH release (%) 30 min: 1 nM hGH-RH(1–29)NH2 30 min later; for Inhibition of GH release (%) 60 min: 1 nM hGH-RH(1–29)NH2 60 min later; for Inhibition of GH release (%) 0 min: 1 nM hGH-RH(1–29)NH2 at 0 min
Protocol: Superfused Rat Pituitary System.
The analogs were tested in vitro in a test described earlier (S. Vigh and A. V. Schally, Peptides 5:241–347, 1984) with modification (Z. Rekasi and A. V. Schally, P.N.A.S. 90:2146–2149, 1993).
Briefly, the cells are preincubated with peptides for 9 minutes (3 mL) at various concentrations. Immediately after the incubation, 1 nM hGH-RH(1–29)NH2 is administered for 3 minutes (1 mL) [0 minute response]. To check the duration of the antagonistic effect of the analogue, 1 nM hGH-RH(1–29)NH2 is applied 30, 60, 90, and 120 minutes later for 3 minutes [30, 60, 90, 120 min responses]. Net integral values of the GH responses are evaluated. GH responses are compared to and expressed as percent of the original GH response induced by 1 nM GH-RH(1–29)NH2. The effect of the new antagonists are compared to that of [Ac-Tyr^1,D-Arg^2]hGH-RH(1–29)NH2, the “Standard antagonist”.
Growth Hormone Radio-immunoassay.
Rat GH levels in aliquots of undiluted and diluted superfusion samples were measured by double-antibody radioimmunoassay using materials supplied by the National Hormone and Pituitary Program, Baltimore, Md. The results of RIA were analyzed with a computer program developed in our institute (V. Csernus and A. V. Schally, in Neuroendocrine Research Methods, Harwood Academic (Greenstein, B. D. ed., London, pp. 71–109, 1991), hereby incorporated by reference. Inter-assay variation was less than 15% and intra-assay variation was less than 10%.

[2] = molecular target: T1, rat pituitary GH-RH receptors (Rattus norvegicus, UniProt Q02644); assay: GH-RH radioreceptor binding assay, rat anterior pituitary membrane homogenates; settings: for Ki: competition with [His1,125I-Tyr10,Nle27]hGH-RH(1–32)NH2; for R.A. (relative affinity compared to Standard antagonist): ratio of Ki values
T1 construct: from tissue; host or cells: anterior pituitary of male Sprague-Dawley rats, crude membrane homogenates
T1 sequence (Q02644 23-464): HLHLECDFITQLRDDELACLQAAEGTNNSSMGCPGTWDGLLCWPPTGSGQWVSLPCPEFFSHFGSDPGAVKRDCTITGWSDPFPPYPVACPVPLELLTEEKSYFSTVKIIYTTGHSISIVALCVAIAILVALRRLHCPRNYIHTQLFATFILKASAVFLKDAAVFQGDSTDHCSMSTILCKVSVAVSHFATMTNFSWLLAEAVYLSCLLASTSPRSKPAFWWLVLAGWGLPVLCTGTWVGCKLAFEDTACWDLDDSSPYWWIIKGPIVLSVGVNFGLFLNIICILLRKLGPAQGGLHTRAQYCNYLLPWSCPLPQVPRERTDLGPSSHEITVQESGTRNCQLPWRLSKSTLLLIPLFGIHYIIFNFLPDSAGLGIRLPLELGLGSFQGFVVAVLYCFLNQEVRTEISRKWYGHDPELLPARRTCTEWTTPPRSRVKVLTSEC
Protocol: GH-RH Binding Assay. A sensitive radioreceptor binding assay was developed to determine the binding characteristics of the antagonists of GH-RH (G. Halmos, A. V. Schally et al., Receptor 3, 87–97, 1993), hereby incorporated by reference. The assay is based on binding of labelled [His^1,Nle^27]hGH-RH(1–32)NH2 to rat anterior pituitary membrane homogenates. Iodinated derivatives of [His^1,Nle^27]hGH-RH(1–32)NH2 are prepared by the chloramine-T method (F. C. Greenwood et al., Biochemistry 89:114–123, 1963), hereby incorporated by reference. Pituitaries from male Sprague-Dawley rats (250–300 g) are used to prepare crude membranes. For saturation binding analyses, membrane homogenates are incubated with at least 6 concentrations of [His^1,^125I-Tyr^10,Nle^27]hGH-RH(1–32) NH2, ranging from 0.005 to 0.35 nM in the presence or absence of excess unlabelled peptide (1 μM).
The pellet is counted for radioactivity in a γ-counter. The affinities of the antagonist peptides tested to rat pituitary GH-RH receptors are determined in competitive binding experiments. The final binding affinities are estimated by Ki (dissociation constant of the inhibitor-receptor complex) and are determined by the Ligand PC and McPherson computer programs of Munson and Rodbard (P. J. Munson and D. Rodbard, Anal. Biochem. 107. 220–239, 1980). Relative affinities compared to [Ac-Tyr^1,D-Arg^2]hGH-RH(1–29)NH2, the Standard antagonist, are calculated as the […].

| Ki [2] [nM] | R.A. (relative affinity compared to Standard antagonist) [2] | SMILES | Inhibition of GH release (%) 30 min ([1]; antagonist 30 nM) [%] | Inhibition of GH release (%) 60 min ([1]; antagonist 30 nM) [%] | Inhibition of GH release (%) 90 min ([1]; antagonist 30 nM, 1 nM hGH-RH(1–29)NH2 90 min later) [%] | Inhibition of GH release (%) 120 min ([1]; antagonist 30 nM, 1 nM hGH-RH(1–29)NH2 120 min later) [%] | Inhibition of GH release (%) 0 min ([1]; antagonist 30 nM) [%] | Inhibition of GH release (%) 30 min ([1]; antagonist 100 nM) [%] | Inhibition of GH release (%) 60 min ([1]; antagonist 100 nM) [%] | Inhibition of GH release (%) 0 min ([1]; antagonist 100 nM) [%] |
| --- | --- | --- | --- | --- | --- | --- | --- | --- | --- | --- |
| 0.07 | 42 | CCCC[C@H](NC(=O)[C@H](CC(N)=O)NC(=O)[C@@H](NC(=O)[C@H](Cc1ccc(Cl)cc1)NC(=O)[C@@H](NC(=O)[C@H](C)NC(=O)[C@H](CC(=O)O)NC(=O)[C@@H](CCCNC(=N)N)NC(=O)[C@H](Cc1ccc(O)cc1)NC(=O)Cc1ccccc1)[C@@H](C)CC)[C@@H](C)O)C(=O)N[C@@H](Cc1ccc(O)cc1)C(=O)N[C@@H](CCCNC(=N)N)C(=O)N[C@@H](CCCCN)C(=O)N[C@H](C(=O)N[C@@H](CC(C)C)C(=O)N[C@@H](CC)C(=O)N[C@@H](CCC(N)=O)C(=O)N[C@@H](CC(C)C)C(=O)N[C@@H](CO)C(=O)N[C@@H](C)C(=O)N[C@@H](CCCNC(=N)N)C(=O)N[C@@H](CCCCN)C(=O)N[C@@H](CC(C)C)C(=O)N[C@@H](CC(C)C)C(=O)N[C@@H](CCC(N)=O)C(=O)N[C@@H](CC(=O)O)C(=O)N[C@H](C(=O)N[C@@H](CCCC)C(=O)N[C@@H](CO)C(=O)N[C@H](CCCNC(=N)N)C(N)=O)[C@@H](C)CC)C(C)C [Peptide 12, [PhAc^0, D-Arg^2, Phe(pCl)^6, Nle^9, Abu^15, Nle^27, D-Arg^29]hGH-RH(1–29)NH2] (PhAc-Y[dR]DAI[Phe(4-Cl)]TN[Nle]YRKVL[Abu]QLSARKLLQDI[Nle]S[dR]-NH2) | 75 | 48 | 52 | 52 | 68 |  |  |  |
| 2.94 | 1 | CC[C@H](C)[C@H](NC(=O)[C@H](C)NC(=O)[C@H](CC(=O)O)NC(=O)[C@@H](CCCNC(=N)N)NC(=O)[C@H](Cc1ccc(O)cc1)NC(C)=O)C(=O)N[C@@H](Cc1ccccc1)C(=O)N[C@H](C(=O)N[C@@H](CC(N)=O)C(=O)N[C@@H](CO)C(=O)N[C@@H](Cc1ccc(O)cc1)C(=O)N[C@@H](CCCNC(=N)N)C(=O)N[C@@H](CCCCN)C(=O)N[C@H](C(=O)N[C@@H](CC(C)C)C(=O)NCC(=O)N[C@@H](CCC(N)=O)C(=O)N[C@@H](CC(C)C)C(=O)N[C@@H](CO)C(=O)N[C@@H](C)C(=O)N[C@@H](CCCNC(=N)N)C(=O)N[C@@H](CCCCN)C(=O)N[C@@H](CC(C)C)C(=O)N[C@@H](CC(C)C)C(=O)N[C@@H](CCC(N)=O)C(=O)N[C@@H](CC(=O)O)C(=O)N[C@H](C(=O)N[C@@H](CCSC)C(=O)N[C@@H](CO)C(=O)N[C@@H](CCCNC(=N)N)C(N)=O)[C@@H](C)CC)C(C)C)[C@@H](C)O [Standard antagonist, [Ac-Tyr^1,D-Arg^2]hGH-RH(1–29)NH2, reference compound] (Ac-Y[dR]DAIFTNSYRKVLGQLSARKLLQDIMSR-NH2) |  |  |  |  |  | 2.5 | 19 | 62.1 |
